Data reported in paper PMC9029893 (International Journal of Molecular Sciences, 2022).

How the values were obtained:
[1] = WST-1 cell viability assay, AoSMC; conditions: human, AoSMC cells
Description: (§1) HUVEC and AoSMC viability were tested using the WST-1 cell viability assay (Takara Bio Europe, Saint-Germain-en-Laye, France). […] Briefly, HUVEC and AoSMC were seeded at densities of 7500 and 5000 cells per well on 96-well plates. The cells were cultivated for up to 24 h to achieve 70% confluency, and subsequently treated with tested compounds diluted in medium (1 + 9; v = 100 μL) or pure medium (control). The plates were incubated at 37 °C (5% CO2) for the next 24 h. Then, the cells were rinsed with 100 μL culture medium, and WST-1 reagent diluted in medium (100 μL) was added; the plates were then incubated again (37 °C, 5% CO2) for another 90 min. The absorbance was measured at 450 nm (iMARK, Bio-Rad, Hercules, CA, USA). The experiments were performed in multiplicate (n = 8) and the results were presented as mean ± SD. The cell viability was expressed as a percentage of the control samples, which constituted 100% viability. […] The variability coefficient of the method was estimated (CV(HUVEC) = 8.94%, n = 8; CV(AoSMC) = 5.84%, n = 10).

[2] = tested on: HUVEC cells; experiment: HUVEC integrity in RTCA-DP system (normalized cell index); assay type: cell-based, human
Description: The effects of sulfonamides 1–8 on the integrity and barrier properties of HUVEC were examined in real-time using a cell electric impedance monitoring system (Real-Time Cell Analyzer; Roche & ACEA Biosciences, Santa Clara, CA, USA), which is based on tracking electrical impedance signals. Any changes in cell status, adhesion, and morphology are expressed by parameter Cell Index (CI). The experimental protocol has been described previously. Briefly, the cells were seeded at a density of 15,000 cells per well on E-16 plates (Roche & ACEA Biosciences, Santa Clara, CA, USA), and cultured until the cells achieved plateau phase. Then, the medium was discarded from each well, and the solutions of the test compounds dissolved in cell culturing medium (100 μL) or pure medium (100 μL, control) were added. The measurements were then carried out for 48 h. The results are presented as mean ± SD of ‘normalized cell index’ (nCI), which is calculated by the division of a CI value at a certain time point by the CI value at a reference time point. The experiments were conducted in multiplicate (n = 4–6). The method was validated and the coefficient of variability (CV) was calculated as 9.17%–15.2%, depending on the measured time point (n = 6).

[3] = WST-1 cell viability assay, HUVEC; conditions: human, HUVEC cells
Description: as §1

[4] = tested on: HUVEC cells; experiment: WST-1 cell viability assay, HUVEC; conditions: for Decrease of HUVECs viability (growth inhibition): 0.3 mM, vs control; for IC50: Homo sapiens, HUVEC, 24 h, read-out: Viability-IC50, HUVEC cells
Description: as §1

[5] = biological target: antithrombin III (AT) (Homo sapiens, UniProt P01008); experiment: Activity of antithrombin III (AT); assay type: biochemical
Sequence of antithrombin III (AT) (P01008 33-464): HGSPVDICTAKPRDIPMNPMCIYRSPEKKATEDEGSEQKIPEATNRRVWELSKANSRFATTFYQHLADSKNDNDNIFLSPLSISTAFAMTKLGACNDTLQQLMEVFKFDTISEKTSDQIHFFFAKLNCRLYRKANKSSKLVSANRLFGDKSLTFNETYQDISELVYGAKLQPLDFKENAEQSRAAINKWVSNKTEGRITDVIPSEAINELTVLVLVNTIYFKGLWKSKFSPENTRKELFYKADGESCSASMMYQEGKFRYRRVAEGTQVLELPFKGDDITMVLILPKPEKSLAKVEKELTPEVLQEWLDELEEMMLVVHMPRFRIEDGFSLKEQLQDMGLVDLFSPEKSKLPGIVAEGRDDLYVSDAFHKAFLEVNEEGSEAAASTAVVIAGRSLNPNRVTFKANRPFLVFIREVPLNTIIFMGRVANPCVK
Description: The activity of AT in human plasma was estimated spectrophotometrically using a diagnostic laboratory method. […] In the control samples, 10 μL of distilled water and methanol (1:1) was used. The reaction was initiated by the addition of a chromogenic substrate dissolved in water for injection; as a result, p-nitroaniline was released proportionally to the level of AT. The evaluation of AT level was performed on the basis of a calibration curve performed on calibrator diluted in the range 1:30–1:120 (λ = 405 nm) by the coagulometer program (CoagChrom-3003 Bio Ksel, Grudziadz, Poland). The coefficient of variability for the method (CV) was 2.69%, and the reference range was 80%–130%.

[6] = tested on: AoSMC cells; experiment: WST-1 cell viability assay, AoSMC; conditions: Homo sapiens, 24 h, read-out: Viability-IC50, AoSMC cells
Description: as §1

| activity of AT III ([5]; 0.06 mM) [%] | activity of AT III ([5]; 0.3 mM) [%] | activity of AT III ([5]; 0.6 mM) [%] | activity of AT III ([5]; 1.5 mM) [%] | Compound | viability at 24 h, 3 mM [1] [%] | normalized Cell Index (nCI) ([2]; 0.3 mM, 3 hours) | normalized Cell Index (nCI) ([2]; 0.3 mM, 6 hours) | normalized Cell Index (nCI) ([2]; 0.3 mM, 12 hours) | normalized Cell Index (nCI) ([2]; 0.3 mM, 24 hours) | normalized Cell Index (nCI) ([2]; 0.3 mM, 36 hours) | normalized Cell Index (nCI) ([2]; 1.0 mM, 3 hours) | normalized Cell Index (nCI) ([2]; 1.0 mM, 6 hours) | normalized Cell Index (nCI) ([2]; 1.0 mM, 12 hours) | normalized Cell Index (nCI) ([2]; 1.0 mM, 24 hours) | normalized Cell Index (nCI) ([2]; 1.0 mM, 36 hours) | viability at 24 h, 0.06 mM [3] [%] | viability at 24 h, 0.3 mM [3] [%] | Decrease of HUVECs viability (growth inhibition) [4] | IC50 [4] [mM] | also measured |
| --- | --- | --- | --- | --- | --- | --- | --- | --- | --- | --- | --- | --- | --- | --- | --- | --- | --- | --- | --- | --- |
| 110.25 ± 8.34 | 115.25 ± 6.18 | 120.00 ± 2.71 | 123.00 ± 5.2 | CCCCS(=O)(=O)NC(N)=NC(=N)N(C)C [Compound 1] | > 59 | 0.832 ± 0.091 | 0.981 ± 0.085 | 1.177 ± 0.149 | 1.207 ± 0.149 | 0.875 ± 0.090 | 0.440 ± 0.032 | 0.676 ± 0.062 | 0.791 ± 0.067 | 0.940 ± 0.077 | 0.858 ± 0.054 | 76.3 ± 9.19 | 71 ± 8.45 | approximately 28.96% | 3.64 ± 0.26 |  |
| 121.00 ± 4.90 | 127.75 ± 10.44 | 125.75 ± 10.87 | 129.00 ± 11.46 | CCCCCCCCS(=O)(=O)NC(N)=NC(=N)N(C)C [Compound 2] |  | 0.608 ± 0.038 | 0.693 ± 0.022 | 0.676 ± 0.047 | 0.522 ± 0.030 | 0.761 ± 0.008 | 0.652 ± 0.006 | 0.706 ± 0.007 | 0.719 ± 0.005 | 0.731 ± 0.002 | 0.379 ± 0.032 | 75.9 ± 5.85 | 71.5 ± 3.12 |  |  | IC50 [6]: 3.71 ± 0.54 mM; viability at 24 h, 3 mM [3]: 41.5%; viability at 24 h, 5 mM [3]: 32.1% |
| 113.00 ± 10.13 | 117.25 ± 5.50 | 131.75 ± 6.65 | 136.75 ± 11.32 | CN(C)C(=N)N=C(N)NS(=O)(=O)C1CCCCC1 [Compound 3] | > 76 | 0.680 ± 0.083 | 0.837 ± 0.213 | 0.927 ± 0.212 | 0.969 ± 0.156 | 0.714 ± 0.035 | 0.233 ± 0.039 | 0.554 ± 0.047 | 0.616 ± 0.042 | 0.748 ± 0.061 | 0.694 ± 0.054 |  |  | ~24.15% | 3.51 ± 0.24 |  |
